Test results from ChEMBL document CHEMBL1121460, “Some spiro analogues of the potent analgesic ketobemidone” (J Med Chem, 1980).
Activity calls are given as the source filed them. The calls are words filed in the database; no cut-off is given here.

Legend:
[1] = organism: Mus musculus; assay: Evaluated for analgesic activity in mice using hot plate method; assay type: functional
[2] = organism: Mus musculus; assay: Evaluated for activity in Nilsen test
[3] = molecular target: Opioid receptor (Rattus norvegicus, UniProt P33533+P34975+P33535); assay: Tested for Opioid receptors affinity determined by the capacity to displace bound, radiolabeled dihydromorphine from rat brain homogenates.
[4] = organism: Mus musculus; assay: Evaluated for analgesic activity in mice using Nilsen test; assay type: functional
[5] = test system: Monkey; assay: Evaluated for single dose suppression tests in monkeys at 2 mg/kg; Not Effective (activity in relation to morphine); assay type: functional, organism-based; design: dose 2 mg/kg; details: Cercopithecidae
[6] = test system: Monkey; assay: Evaluated for depressant effects in photocell activity cages at 10 mg/kg; IA is Inactive.; assay type: functional, organism-based; design: dose 10 mg/kg; details: Cercopithecidae
[7] = test system: Monkey; assay: Evaluated for depressant effects in photocell activity cages at 60 mg/kg; IA is Inactive.; assay type: functional, organism-based; design: dose 60 mg/kg; details: Cercopithecidae
[8] = test system: Monkey; assay: Evaluated for single dose suppression tests in monkeys at 10 mg/kg; Not Effective (activity in relation to morphine); assay type: functional, organism-based; design: dose 10 mg/kg; details: Cercopithecidae
[9] = test system: Monkey; assay: Evaluated for activity in inverted screen assay; assay type: functional; details: Cercopithecidae
[10] = organism: Mus musculus; assay: Evaluated for analgesic activity in mice using writhing test; assay type: functional
[11] = Lethal dose in monkeys; assay type: toxicity, organism-based; details: cercopithecidae, in vivo
[12] = test system: Monkey; assay: Evaluated for single dose suppression tests in monkeys at 5 mg/kg; Not Effective (activity in relation to morphine); assay type: functional, organism-based; design: dose 5 mg/kg; details: Cercopithecidae

SMILES | ED50 [1] [mg/kg] | Ki [3] [µM] | ED50 [4] [mg/kg] | other results
CCC(=O)C1(c2cccc(O)c2)CCN(C)CC1 [KETOBEMIDONE] | 0.8 | – | – | –
CN1CC[C@]23c4c5ccc(O)c4O[C@H]2[C@@H](O)C=C[C@H]3[C@H]1C5 [MORPHINE] | – | – | – | ED50 [2]: 0.8 mg/kg
C=CCN1CCC2(CC1)c1cc(O)ccc1C(C)(C)OC2CC (configuration not stated) | > 30 | 5 | > 30 | –
CCCCCN1CCC2(CC1)c1cc(O)ccc1C(C)(C)OC2CC (configuration not stated) | > 30 | 2 | > 30 | Activity [5]: inactive; ED50 [6]: inactive; ED50 [7]: inactive; Activity [8]: inactive; ED50 [9]: 38 mg/kg; ED50 [10]: 4.2 mg/kg; LD50 [11]: 80 mg/kg; Activity [12]: inactive
CCC1OC(C)(C)c2ccc(O)cc2C12CCN(C)CC2 (configuration not stated) | > 30 | 10 | > 30 | –
CCCCCN1CCC2(CC1)c1cc(O)ccc1C(C)(CC)OC2CC (configuration not stated) | > 30 | 5 | > 30 | –
